Test results from PubChem BioAssay (NCI).
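Grown in 96-well plates, cells were treated for 48 hours with each compound at five concentrations. Insufficient inhibition: endpoint recorded as highest concentration tested. GI50 = concentration required for 50% inhibition of growth. TGI denotes the concentration required for complete inhibition of growth.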

Experiments:
Experiment in all cases: NCI anticancer screen, dose series, 48 h
HOP-62 NSCLC = system: HOP-62 NSCLC
NCI-H460 lung = system: NCI-H460 lung
HT29 colon = system: HT29 colon
T-47D breast = system: T-47D breast
M14 melanoma = system: M14 melanoma
SW-620 colon = system: SW-620 colon
KM12 colon = system: KM12 colon
SK-OV-3 ovarian = system: SK-OV-3 ovarian
SF-539 CNS = system: SF-539 CNS
NCI-H522 lung = system: NCI-H522 lung

Row | Compound | GI50 (HOP-62 NSCLC) [µM] | TGI (HOP-62 NSCLC) [µM] | GI50 (NCI-H460 lung) [µM] | TGI (NCI-H460 lung) [µM] | GI50 (HT29 colon) [µM] | TGI (HT29 colon) [µM] | GI50 (T-47D breast) [µM] | TGI (T-47D breast) [µM] | GI50 (M14 melanoma) [µM] | TGI (M14 melanoma) [µM] | GI50 (SW-620 colon) [µM] | TGI (SW-620 colon) [µM] | GI50 (KM12 colon) [µM] | TGI (KM12 colon) [µM] | GI50 (SK-OV-3 ovarian) [µM] | TGI (SK-OV-3 ovarian) [µM] | GI50 (SF-539 CNS) [µM] | TGI (SF-539 CNS) [µM] | GI50 (NCI-H522 lung) [µM] | TGI (NCI-H522 lung) [µM]
1 | COc1ccc(-c2cc3c4c(nc5ccccc5c4c2)CC(c2cc(OC)c(OC)c(OC)c2)O3)cc1 (stereo not drawn) | 2.98 | 12.5 | 1.46 | 4.79 | 3.07 | > 100 | 2.34 | 7.53 | 2.96 | 28.7 | 2.63 | > 100 | 3.78 | > 100 | 4.08 | 17.2 | 1.44 | 2.95 | 2.63 | 13.9
2 | Cc1cc(N(CCCl)CCCl)ccc1C=Nc1cccnc1 | 10.5 | > 100 | 0.369 | > 47.7 | > 79 | > 100 | 1.6 | > 73.2 | 22.5 | > 100 | 61.2 | > 100 | 42.6 | > 100 | 7.57 | > 59.3 | 4.81 | > 100 | 14.3 | 38.1
3 | COc1ccccc1-c1cc2c3c(nc4ccccc42)C(=O)c2cccnc2-c3n1 | 14.4 | 48.2 | 11.5 | 26 | 15.3 | 29.9 | 9.08 | > 94.6 | 5.1 | 17.3 | 9.58 | 27.3 | 9.88 | 33.2 | 20.8 | 51.2 | 14.8 | 35.4 | 1.65 | 5.23
4 | COC(=O)C(=O)C(C(=O)C(=O)Nc1ccccc1C(=O)OC)c1nc2ccc(C(=O)c3ccccc3)cc2[nH]c1=O (stereo not drawn) |  | > 100 |  | > 100 |  | > 100 |  | > 100 |  | > 100 |  | > 100 |  | > 100 |  | > 100 |  | > 100 |  | > 100
5 | O=C(Cn1ccnc1[N+](=O)[O-])N(CCO)CCO | 22.3 | > 250 | > 250 | > 1250 | > 1250 | > 1250 |  | > 250 |  | > 250 | > 1250 | > 1250 | > 1250 | > 1250 | > 58 | > 250 | > 1250 | > 1250 | > 1250 | > 1250
6 | c1ccc2c(c1)O[As](O[As]1Oc3ccccc3O1)O2 | 3.62 | 14.2 | 4.43 | 23.6 | 2.75 | 8.74 | 1.69 | 14.6 | 3.18 | 15.3 | 3.01 | 14.8 | 7.79 | 20.6 | 11.7 | 26 | 1.84 | 6.27 | 0.548 | 2.06
7 | Cc1c(Cl)ccc2c1NC(=O)C2(O)CC(=O)c1ccc(Cl)cc1Cl (stereo not drawn) |  | > 50 |  | > 50 |  | > 50 |  | > 50 |  | > 50 |  | > 50 |  | > 50 |  | > 50 |  | > 50 |  | > 50
